Laboratory results published in patent US20260355225A1 (priority 2022, published 2026).
≈ marks a conversion by molar mass, not a printed value. Where “and” joins values, the source holds several entries; their conditions need not be identical. Equal entries are not always repeated.

Key:
[1] = according to Sigma cat #1.08689; cited from earlier work
[2] = test system: cells; conditions: cited from earlier work
[3] = test system: SARS-CoV-2; assay: Antiviral assay, inhibition of virus-induced cytopathic effect (CPE) of SARS-CoV-2 by MTT assay (Example 1); conditions: for Viability percentage: 4320 min
[4] = Cytotoxicity of D-xylose, MTT assay, absence of viral infection (Example 1); format: cell-based; conditions: monkey, vero cells
Method: (§1) Cells (Vero E6) were used, with two modes of administration: either at the same time or 6 h before infection with SARS-CoV-2 (isolated early).
(§2) The readout for this test is CPE, so the infection will be stopped at 72 hpi (hours post-infection), and the compound will remain for the duration of the experiment. In parallel, the cytotoxicity of the same compound concentrations will be tested in the absence of viral infection.
(§3) The day before the experiment, the 8,000 cells/well are seeded in two 96-well plates (clear, Sarstedt), one for the antiviral study and one for the cytotoxicity study.
(§4) 134.4 μl of the 1 M composition is transferred to 1,465.6 μl of infection medium (=84 mM, twice the final maximum concentration).
(§5) Next, the cell support in the cytotoxicity plate is removed.
(§6) Immediately afterwards, 50 μl of undiluted infection medium is added to all the wells.
(§7) Next, 50 μl of infection medium without diluent is added to columns 4 to 6.
(§8) Next, the plate is incubated at 37 °C, 5% CO2 for 48 h.
(§9) After 72 h, when the CPE is evident, an MTT assay is performed for the antiviral and cytotoxicity plates.

[5] = test system: Vero AD cells; assay: as above; format: cell-based; conditions: 6 h pre-treatment
Method: as §1, §2, §3, §4, §5, §6, §7, §8, §9

[6] = test system: HIV-1 NL4-3; assay: Antiviral assay against HIV-1 NL4-3, percentage of infected cells by immunofluorescence (Example 2); conditions: Human immunodeficiency virus 1, NL43, 48 h
[7] = as above; conditions: human, hela tzmbl cells, Viability Percentages, D-xylose 104.000 mM, replicate wells
[8] = test system: glycated hemoglobin (HbA1c); conditions: healthy person; cited from earlier work
[9] = D-xylose absorption tests; cited from earlier work
[10] = test system: glycosaminoglycans; conditions: fibroblasts, keranocytes, CHO, BHK, BAE and other cells; cited from earlier work
[11] = test system: HeLa TZMBL cells; assay: Cytotoxicity of D-xylose alone or + insulin, MTT assay, absence of viral infection (Example 2); conditions: for Cytotoxicity percentage / Viability percentage: 2880 min
[12] = as above; conditions: human, hela tzmbl cells

O=C[C@H](O)[C@@H](O)[C@H](O)CO [D-xylose]
solubility [1]: 550 mg/mL (≈ 3660 mM) | xylose in cytosol at equilibrium ([2]; in the presence of insulin): 80% | xylose in plasma at equilibrium ([2]; in the presence of insulin): 20% | increase of penetration rate of D-xylose into the cells ([2]; with insulin): two to five times | absorbance at 570 nm ([3]; 6 h pre-treatment, 0.328125 mM): 0.067 and 0.073 and 0.088 | absorbance at 570 nm ([3]; 6 h pre-treatment, 0.65625 mM): 0.08 and 0.081 and 0.085 | Viability percentage ([3]; 6 h pre-treatment, 0.65625 mM, 656.25 µM): −8.66% and −7.49% and −2.79% | absorbance at 570 nm ([3]; 6 h pre-treatment, 1.3125 mM): 0.08 and 0.099 and 0.091 | absorbance at 570 nm ([3]; 6 h pre-treatment, 2.625 mM): 0.075 and 0.121 and 0.124 | absorbance at 570 nm ([3]; 6 h pre-treatment, 5.25 mM): 0.087 and 0.106 and 0.098 | absorbance at 570 nm ([3]; 6 h pre-treatment, 10.5 mM): 0.102 and 0.096 | absorbance at 570 nm ([3]; 6 h pre-treatment, 21 mM): 0.116 and 0.109 and 0.098 | absorbance at 570 nm ([3]; 6 h pre-treatment, 42 mM): 0.095 and 0.09 and 0.108 | viability at 10500 µM ([3]; Severe acute respiratory syndrome coronavirus 2, Vero C1008, in Chlorocebus sabaeus, 72 h, read-out: Viability percentage, 6 h pre-treatment, 10.5 mM): 17.2% | viability at 656.25 µM ([3]; Severe acute respiratory syndrome coronavirus 2, Vero C1008, in Chlorocebus sabaeus, 72 h, read-out: Viability percentage, at time of infection, 0.65625 mM): 10.1% | IC50 ([3]; Severe acute respiratory syndrome coronavirus 2, co-administration of D-xylose and SARS-CoV-2): 95.5 mM | IC50 ([3]; Severe acute respiratory syndrome coronavirus 2, pre-incubation of D-xylose 6 h prior to SARS-CoV-2 infection): 26.2 mM | absorbance at 570 nm ([3]; at time of infection, 0.328125 mM): 0.088 and 0.087 | Viability percentage ([3]; at time of infection, 0.328125 mM, 328.125 µM): 0.73% and −0.44% | absorbance at 570 nm ([3]; at time of infection, 0.65625 mM): 0.096 and 0.099 and 0.101 | Viability percentage ([3]; at time of infection, 0.65625 mM, 656.25 µM): 13.66% and 16.01% | absorbance at 570 nm ([3]; at time of infection, 1.3125 mM): 0.096 and 0.094 and 0.091 | Viability percentage ([3]; at time of infection, 1.3125 mM, 1312.5 µM): 7.78% and 4.26% | absorbance at 570 nm ([3]; at time of infection, 2.625 mM): 0.141 and 0.113 and 0.103 | absorbance at 570 nm ([3]; at time of infection, 5.25 mM): 0.09 and 0.137 and 0.126 | absorbance at 570 nm ([3]; at time of infection, 10.5 mM): 0.109 and 0.131 and 0.107 | absorbance at 570 nm ([3]; at time of infection, 21 mM): 0.111 and 0.151 and 0.113 | absorbance at 570 nm ([3]; at time of infection, 42 mM): 0.059 and 0.095 and 0.09 | viability at 328.125 µM ([4]; 6 h pre-treatment, 0.328125 mM, read-out: Viability percentage): 130% | viability at 656.25 µM ([4]; 6 h pre-treatment, 0.65625 mM, read-out: Viability percentage): 90.9% | viability at 1312.5 µM ([4]; 6 h pre-treatment, 1.3125 mM, read-out: Viability percentage): 122% | viability at 2625 µM ([4]; 6 h pre-treatment, 2.625 mM, read-out: Viability percentage): 108% | viability at 5250 µM ([4]; 6 h pre-treatment, 5.25 mM, read-out: Viability percentage): 115% | viability at 10500 µM ([4]; 6 h pre-treatment, 10.5 mM, read-out: Viability percentage): 109% | viability at 21000 µM ([4]; 6 h pre-treatment, 21 mM, read-out: Viability percentage): 110% | viability at 42000 µM ([4]; 6 h pre-treatment, 42 mM, read-out: Viability percentage): 108% | CC50 ([4]; MTT, no virus): > 42 mM | Viability percentage ([5]; 0.328125 mM, 328.125 µM): 119.81% | Viability percentage ([5]; 0.65625 mM, 656.25 µM): 100.84% and 108.33% | Cytotoxicity percentage ([5]; 1.3125 mM, 1312.5 µM): −21.81% and −24.31% and −17.82% | Viability percentage ([5]; 1.3125 mM, 1312.5 µM): 124.31% and 117.82% | Viability percentage ([5]; 2.625 mM, 2625 µM): 118.32% and 114.82% | Cytotoxicity percentage ([5]; 5.25 mM, 5250 µM): −15.32% and −18.81% and −10.83% | Viability percentage ([5]; 5.25 mM, 5250 µM): 118.81% and 110.83% | Cytotoxicity percentage ([5]; 10.5 mM, 10500 µM): −9.33% and −10.83% and −6.33% | Viability percentage ([5]; 10.5 mM, 10500 µM): 110.83% and 106.33% | Cytotoxicity percentage ([5]; 21 mM, 21000 µM): −9.83% and −10.33% | Viability percentage ([5]; 21 mM, 21000 µM): 110.33% | Cytotoxicity percentage ([5]; 42 mM, 42000 µM): −7.83% and −9.83% and −3.34% | Viability percentage ([5]; 42 mM, 42000 µM): 103.34% | activity at 1625 µM ([6]; read-out: % Infection, D-xylose 1.625 mM, replicate wells): 20.8% | activity at 3250 µM ([6]; read-out: % Infection, D-xylose 3.250 mM, replicate wells): 20.4% | activity at 6500 µM ([6]; read-out: % Infection, D-xylose 6.500 mM, replicate wells): 18.1% | activity at 13000 µM ([6]; read-out: % Infection, D-xylose 13.000 mM, replicate wells): 20.4% | activity at 26000 µM ([6]; read-out: % Infection, D-xylose 26.000 mM, replicate wells): 20.6% | activity at 52000 µM ([6]; read-out: % Infection, D-xylose 52.000 mM, replicate wells): 20.2% | activity at 104000 µM ([6]; read-out: % Infection, D-xylose 104.000 mM, replicate wells): 14.9% | viability at 48 h, 104000 µM [7]: 20.8% | effect on glycated hemoglobin (HbA1c) levels [8]: little or no effect | side effects [9]: laxative effects in adults, diarrhea, nausea, and vomiting | stimulation of glycosaminoglycans [10]: proven glycosaminoglycan stimulators of several cell types | median cytotoxic concentration (TC50) ([11]; 48 h, MTT): 260.3 | Results for Cytotoxicity (MTT readout) ([11]; D-xylose 1.625 mM): 2.399 and 2.351 and 2.424 | Cytotoxicity percentage ([11]; D-xylose 1.625 mM, 1625 µM): 0.47% and 2.50% and −0.58% | Viability percentage ([11]; D-xylose 1.625 mM, 1625 µM): 97.50% and 100.58% | Results for Cytotoxicity (MTT readout) ([11]; D-xylose 3.25 mM): 2.286 and 2.266 and 2.242 | Cytotoxicity percentage ([11]; D-xylose 3.25 mM, 3250 µM): 6.09% and 7.10% | Viability percentage ([11]; D-xylose 3.25 mM, 3250 µM): 93.91% and 92.90% | Results for Cytotoxicity (MTT readout) ([11]; D-xylose 6.5 mM): 2.168 and 2.211 and 2.316 | Cytotoxicity percentage ([11]; D-xylose 6.5 mM, 6500 µM): 10.22% and 8.41% and 3.98% | Viability percentage ([11]; D-xylose 6.5 mM, 6500 µM): 91.59% and 96.02% | Results for Cytotoxicity (MTT readout) ([11]; D-xylose 13 mM): 2.175 and 2.293 and 2.032 | Viability percentage ([11]; D-xylose 13 mM, 13000 µM): 95.05% and 84.04% | Results for Cytotoxicity (MTT readout) ([11]; D-xylose 26 mM): 2.196 and 2.137 and 2.158 | Cytotoxicity percentage ([11]; D-xylose 26 mM, 26000 µM): 11.53% and 10.64% | Viability percentage ([11]; D-xylose 26 mM, 26000 µM): 88.47% and 89.36% | Results for Cytotoxicity (MTT readout) ([11]; D-xylose 52 mM): 2.123 and 2.266 and 2.199 | Cytotoxicity percentage ([11]; D-xylose 52 mM, 52000 µM): 6.09% and 8.91% | Viability percentage ([11]; D-xylose 52 mM, 52000 µM): 93.91% and 91.09% | Results for Cytotoxicity (MTT readout) ([11]; D-xylose 104 mM): 2.075 and 2.027 and 2.064 | Cytotoxicity percentage ([11]; D-xylose 104 mM, 104000 µM): 16.17% and 14.61% | Viability percentage ([11]; D-xylose 104 mM, 104000 µM): 83.83% and 85.39% | cytotoxicity at 48 h, 3250 µM ([12]; Cytotoxicity percentage, D-xylose 3.25 mM): 5.24% | cytotoxicity at 48 h, 26000 µM ([12]; Cytotoxicity percentage, D-xylose 26 mM): 9.04% | cytotoxicity at 48 h, 52000 µM ([12]; Cytotoxicity percentage, D-xylose 52 mM): 12.1% | cytotoxicity at 48 h, 104000 µM ([12]; Cytotoxicity percentage, D-xylose 104 mM): 14.1% | viability at 48 h, 1625 µM ([12]; Viability percentage, D-xylose 1.625 mM): 99.5% | viability at 48 h, 3250 µM ([12]; Viability percentage, D-xylose 3.25 mM): 94.8% | viability at 48 h, 6500 µM ([12]; Viability percentage, D-xylose 6.5 mM): 89.8% | viability at 48 h, 13000 µM ([12]; Viability percentage, D-xylose 13 mM): 90.1% | viability at 48 h, 26000 µM ([12]; Viability percentage, D-xylose 26 mM): 91% | viability at 48 h, 52000 µM ([12]; Viability percentage, D-xylose 52 mM): 87.9% | viability at 48 h, 104000 µM ([12]; Viability percentage, D-xylose 104 mM): 85.9%
